Experimental data reported in PubChem BioAssay AID330 (DTP/NCI, 2004).
Several values for one entry are separate records, joined by “and”; a condition that tells them apart may be missing. Identical values can stand only once. Toxic doses and inconclusive results are not listed.

Test system: P388 leukemia ip, CD2F1 mice, survival T/C
Assay: NCI In Vivo Anticancer Drug Screen. Data for tumor model P388 Leukemia (intraperitoneal) in CD2F1 (CDF1) mice
Conditions: endpoint: median survival time, higher = longer survival
Outline: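 Mice carrying the transplanted tumor received test compound or vehicle. Survival was recorded in each group, and the value is the treated-group measurement divided by that of the vehicle-treated control group.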

[1] = dose: 12.5 mg/kg/injection, schedule: Q01DX005 (ip), vehicle: saline with Tween-80
[2] = dose: 25.0 mg/kg/injection, schedule: Q01DX005 (ip), vehicle: saline with Tween-80
[3] = dose: 50.0 mg/kg/injection, schedule: Q01DX005 (ip), vehicle: saline with Tween-80
[4] = dose: 100.0 mg/kg/injection, schedule: Q01DX005 (ip), vehicle: saline with Tween-80
[5] = dose: 100.0 mg/kg/injection, schedule: Q01DX001 (ip), vehicle: saline with Tween-80
[6] = dose: 200.0 mg/kg/injection, schedule: Q01DX001 (ip), vehicle: saline with Tween-80
[7] = dose: 400.0 mg/kg/injection, schedule: Q01DX001 (ip), vehicle: saline with Tween-80
[8] = dose: 12.5 mg/kg/injection, schedule: Q01DX009 (ip), vehicle: Klucel (hydroxypropylcellulose) (HPC)
[9] = dose: 200.0 mg/kg/injection, schedule: Q01DX005 (ip), vehicle: saline with Tween-80
[10] = dose: 60.0 mg/kg/injection, schedule: Q01DX005 (ip), vehicle: saline with Tween-80
[11] = dose: 120.0 mg/kg/injection, schedule: Q01DX005 (ip), vehicle: saline with Tween-80
[12] = dose: 240.0 mg/kg/injection, schedule: Q01DX005 (ip), vehicle: saline with Tween-80

SMILES: COC(=O)C(Cc1c[nH]c2ccccc12)N1CN(C)c2ccccc2C1=O (stereo not given)
- T/C (dose: 60.0 mg/kg/injection, schedule: Q01DX005 (ip), vehicle: Klucel (hydroxypropylcellulose) (HPC)): 98 % of control
- T/C (dose: 120.0 mg/kg/injection, schedule: Q01DX005 (ip), vehicle: Klucel (hydroxypropylcellulose) (HPC)): 98 % of control
- T/C (dose: 240.0 mg/kg/injection, schedule: Q01DX005 (ip), vehicle: Klucel (hydroxypropylcellulose) (HPC)): 90 % of control

SMILES: CC(=O)C[n+]1cccc(C)c1Sc1ccccc1
- T/C [1]: 97 % of control
- T/C [2]: 101 % of control
- T/C [3]: 108 % of control and 94 % of control

SMILES: CCC(=O)Nc1ccc(Br)cc1
- T/C (dose: 50.0 mg/kg/injection, schedule: Q01DX009 (ip), vehicle: saline with Tween-80): 102 % of control
- T/C (dose: 100.0 mg/kg/injection, schedule: Q01DX009 (ip), vehicle: saline with Tween-80): 94 % of control
- T/C (dose: 200.0 mg/kg/injection, schedule: Q01DX009 (ip), vehicle: saline with Tween-80): 96 % of control
- T/C (dose: 400.0 mg/kg/injection, schedule: Q01DX009 (ip), vehicle: saline with Tween-80): 96 % of control

SMILES: O=CC(=C\c1ccco1)/C(C=O)=C\c1ccco1
- T/C [3]: 97 % of control
- T/C [4]: 112 % of control

SMILES: On1cccc2c(Br)cnc1-2
- T/C [5]: 98 % of control
- T/C [6]: 99 % of control
- T/C [7]: 90 % of control

SMILES: NC(=O)C1CCC(c2ccccc2)(c2ccccc2)C1=O (stereo not given)
- T/C (dose: 100.0 mg/kg/injection, schedule: Q04DX002 (ip), vehicle: saline with Tween-80): 99 % of control
- T/C (dose: 200.0 mg/kg/injection, schedule: Q04DX002 (ip), vehicle: saline with Tween-80): 105 % of control
- T/C (dose: 400.0 mg/kg/injection, schedule: Q04DX002 (ip), vehicle: saline with Tween-80): 101 % of control

SMILES: N#CN=[N+]([O-])c1ccccc1Cl
- T/C (dose: 3.12 mg/kg/injection, schedule: Q01DX009 (ip), vehicle: Klucel (hydroxypropylcellulose) (HPC)): 100 % of control
- T/C (dose: 6.25 mg/kg/injection, schedule: Q01DX009 (ip), vehicle: Klucel (hydroxypropylcellulose) (HPC)): 107 % of control
- T/C (dose: 6.25 mg/kg/injection, schedule: Q04DX003 (ip), vehicle: Klucel (hydroxypropylcellulose) (HPC)): 91 % of control
- T/C [8]: 109 % of control
- T/C (dose: 12.5 mg/kg/injection, schedule: Q04DX003 (ip), vehicle: Klucel (hydroxypropylcellulose) (HPC)): 100 % of control
- T/C (dose: 25.0 mg/kg/injection, schedule: Q04DX003 (ip), vehicle: Klucel (hydroxypropylcellulose) (HPC)): 91 % of control

SMILES: O=Cc1coc2ccccc2c1=O
- T/C (dose: 25.0 mg/kg/injection, schedule: Q01DX009 (ip), vehicle: saline): 120 % of control
- T/C (dose: 50.0 mg/kg/injection, schedule: Q01DX009 (ip), vehicle: saline): 110 % of control
- T/C (dose: 100.0 mg/kg/injection, schedule: Q01DX009 (ip), vehicle: saline): 119 % of control and 120 % of control

SMILES: Cc1ccc2c(c1)nc(Cl)n2Cc1ccccc1
- T/C (dose: 50.0 mg/kg/injection, schedule: Q01DX005 (ip), vehicle: Klucel (hydroxypropylcellulose) (HPC)): 100 % of control
- T/C (dose: 100.0 mg/kg/injection, schedule: Q01DX005 (ip), vehicle: Klucel (hydroxypropylcellulose) (HPC)): 102 % of control
- T/C (dose: 200.0 mg/kg/injection, schedule: Q01DX005 (ip), vehicle: Klucel (hydroxypropylcellulose) (HPC)): 102 % of control

SMILES: COc1ccc(C(CC(=O)O)CC(=O)c2ccc(N(CCCl)CCCl)cc2)cc1 (stereo not given)
- T/C (dose: 100.0 mg/kg/injection, schedule: Q01DX001 (ip), vehicle: suspension in saline): 98 % of control
- T/C (dose: 200.0 mg/kg/injection, schedule: Q01DX001 (ip), vehicle: suspension in saline): 99 % of control

SMILES: COc1cc(N=Nc2cc(CN(C)C)cc3ncccc23)c(OC)cc1N=Nc1ccc([N+](=O)[O-])cc1
- T/C [1]: 98 % of control
- T/C [8]: 93 % of control
- T/C [2]: 109 % of control
- T/C (dose: 25.0 mg/kg/injection, schedule: Q01DX009 (ip), vehicle: Klucel (hydroxypropylcellulose) (HPC)): 91 % of control
- T/C (dose: 38.25 mg/kg/injection, schedule: Q01DX009 (ip), vehicle: Klucel (hydroxypropylcellulose) (HPC)): 102 % of control
- T/C [3]: 100 % of control
- T/C (dose: 50.0 mg/kg/injection, schedule: Q01DX009 (ip), vehicle: Klucel (hydroxypropylcellulose) (HPC)): 120 % of control and 93 % of control
- T/C (dose: 76.5 mg/kg/injection, schedule: Q01DX009 (ip), vehicle: Klucel (hydroxypropylcellulose) (HPC)): 94 % of control
- T/C [4]: 107 % of control
- T/C (dose: 100.0 mg/kg/injection, schedule: Q01DX009 (ip), vehicle: Klucel (hydroxypropylcellulose) (HPC)): 99 % of control and 115 % of control and 95 % of control
- T/C (dose: 153.0 mg/kg/injection, schedule: Q01DX009 (ip), vehicle: Klucel (hydroxypropylcellulose) (HPC)): 95 % of control
- T/C [9]: 107 % of control
- T/C (dose: 200.0 mg/kg/injection, schedule: Q01DX009 (ip), vehicle: Klucel (hydroxypropylcellulose) (HPC)): 108 % of control and 93 % of control
- T/C (dose: 306.0 mg/kg/injection, schedule: Q01DX009 (ip), vehicle: Klucel (hydroxypropylcellulose) (HPC)): 110 % of control
- T/C (dose: 400.0 mg/kg/injection, schedule: Q01DX005 (ip), vehicle: saline with Tween-80): 109 % of control
- T/C (dose: 400.0 mg/kg/injection, schedule: Q01DX009 (ip), vehicle: Klucel (hydroxypropylcellulose) (HPC)): 102 % of control and 94 % of control

SMILES: C=[CH][Pb]([CH]=C)([CH]=C)[O]C(C)=O
- T/C (dose: 1.25 mg/kg/injection, schedule: Q01DX009 (ip), vehicle: saline with Tween-80): 110 % of control and 111 % of control
- T/C (dose: 2.5 mg/kg/injection, schedule: Q01DX009 (ip), vehicle: saline with Tween-80): 160 % of control
- T/C (dose: 5.0 mg/kg/injection, schedule: Q01DX009 (ip), vehicle: saline with Tween-80): 151 % of control and 188 % of control

SMILES: Nc1nc(-c2cc(-c3ccco3)nc(N)n2)cc(-c2ccco2)n1
- T/C (dose: 60.0 mg/kg/injection, schedule: Q01DX005 (ip), vehicle: saline): 103 % of control
- T/C (dose: 120.0 mg/kg/injection, schedule: Q01DX005 (ip), vehicle: saline): 103 % of control
- T/C (dose: 240.0 mg/kg/injection, schedule: Q01DX005 (ip), vehicle: saline): 101 % of control

SMILES: CC1(C)OCC(C2OC3OC(C)(C)OC3C2=C(Br)Br)O1 (stereo not given)
- T/C [10]: 91 % of control
- T/C [11]: 100 % of control
- T/C [12]: 89 % of control

SMILES: S=C1N(c2ccc(Br)cc2)C2=Nc3ccccc3SC(=C2N=Nc2ccc(Br)cc2)N1c1ccc(Cl)cc1
- T/C [3]: 93 % of control
- T/C [4]: 86 % of control
- T/C [9]: 91 % of control

SMILES: COC(=O)Cn1/c(=N\N=C(/C)c2ccccc2)sc2ccccc21
- T/C [5]: 102 % of control
- T/C [6]: 99 % of control
- T/C [7]: 99 % of control

SMILES: Cc1nc(C)c2c(C)[nH]c(-c3ccccc3)c2n1
- T/C (dose: 25.0 mg/kg/injection, schedule: Q04DX002 (ip), vehicle: Klucel (hydroxypropylcellulose) (HPC)): 102 % of control
- T/C (dose: 50.0 mg/kg/injection, schedule: Q04DX002 (ip), vehicle: Klucel (hydroxypropylcellulose) (HPC)): 101 % of control
- T/C (dose: 100.0 mg/kg/injection, schedule: Q04DX002 (ip), vehicle: Klucel (hydroxypropylcellulose) (HPC)): 108 % of control
- T/C (dose: 200.0 mg/kg/injection, schedule: Q04DX002 (ip), vehicle: Klucel (hydroxypropylcellulose) (HPC)): 104 % of control

SMILES: N#Cc1nc(CC(=O)c2ccccc2Cl)c(CC(=O)c2ccccc2Cl)nc1C#N
- T/C [10]: 100 % of control
- T/C [11]: 94 % of control
- T/C [12]: 114 % of control
